Values quoted from earlier work as cited in US7071293B1, “Alpha helical peptides with broad spectrum antimicrobial activity that are insensitive to salt” (priority 1999, dated 2006).
Values after ≈ are worked out from the molar mass of the structure shown. Values joined by “and” are separate entries in the source; they are usually repeats but may differ in a detail not shown here. Equal values may be shown once. Read-outs that look alike come from different tables or passages of the source.

Legend:
Bacillus spp. = details: cited from earlier work
Bacteroides fragilis = details: cited from earlier work
[1] = system: Bordetella bronchiseptica; details: cited from earlier work
Borrelia burgdorferi = details: cited from earlier work
[2] = system: Branhamella (Moraxella) catarrhalis; details: MIC range; Branhamella (Moraxella) catarrhalis (β-lactamase producer); cited from earlier work
Campylobacter jejuni = details: cited from earlier work
Campylobacter pylori = details: cited from earlier work
Enterococcus faecium = details: cited from earlier work
Enterococcus spp. = details: cited from earlier work
Haemophilus ducreyi = details: cited from earlier work
Haemophilus influenzae = details: cited from earlier work; for MIC50 / MIC90: in µg/mL; for Range: MIC range
[3] = system: Haemophilus parainfluenzae; details: cited from earlier work
Listeria monocytogenes = details: cited from earlier work
Neisseria gonorrhoeae = details: cited from earlier work; for MIC90: in µg/mL
Neisseria meningitidis = details: cited from earlier work
Staphylococcus aureus = details: cited from earlier work
Streptococcus agalactiae = details: cited from earlier work
Streptococcus pneumoniae = details: cited from earlier work
Streptococcus pyogenes = details: in µg/mL; cited from earlier work
Streptococcus spp. = details: cited from earlier work
[4] = Haemophilus influenzae (non β-lactamase producer)
[5] = Haemophilus influenzae (penicillin resistant)
[6] = Haemophilus influenzae (penicillin susceptible)
[7] = Haemophilus influenzae (β-lactamase producer)
[8] = Staphylococcus aureus (penicillin susceptible)

## CC[C@H]1OC(=O)[C@H](C)[C@@H](O[C@H]2C[C@@](C)(OC)[C@@H](O)[C@H](C)O2)[C@H](C)[C@@H](O[C@@H]2O[C@H](C)C[C@H](N(C)C)[C@H]2O)[C@](C)(O)C[C@@H](C)C(=O)[C@H](C)[C@@H](O)[C@]1(C)O [ERYTHROMYCIN, erythromycin]
Bacillus spp.; MIC range
  Range: 0.03–2
Bacillus spp.
  MIC90: 2 µg/mL (≈ 2.73 µM)
Bacteroides fragilis; MIC range
  Range: 0.25–16
Bacteroides fragilis
  MIC50: 1 µg/mL (≈ 1.36 µM)
  MIC90: 8 µg/mL (≈ 10.9 µM)
[1]; MIC range
  Range: 4–32
[1]
  MIC50: 8 µg/mL (≈ 10.9 µM)
  MIC90: 32 µg/mL (≈ 43.6 µM)
Borrelia burgdorferi
  MIC50: 0.03 µg/mL (≈ 0.0409 µM)
  MIC90: 0.06 µg/mL (≈ 0.0818 µM)
[2]
  Range: 0.06–1 and 0.03–0.25 and 0.06–8
Campylobacter jejuni; MIC range
  Range: 0.5–8
Campylobacter jejuni; in µg/mL
  MIC90: 4 and 2
Campylobacter pylori; MIC range
  Range: 0.25–16
Campylobacter pylori
  MIC50: 0.5 µg/mL (≈ 0.681 µM)
Enterococcus faecium
  MIC50: 1 µg/mL (≈ 1.36 µM)
Enterococcus spp.
  MIC50: 2 µg/mL (≈ 2.73 µM)
Haemophilus ducreyi
  MIC50: 0.004 µg/mL (≈ 0.00545 µM)
  MIC90: 0.06 µg/mL (≈ 0.0818 µM)
Haemophilus influenzae; [4]
  MIC50: 2 and 4
  MIC90: 4 and 8
Haemophilus influenzae; [5]
  MIC50: 8
  MIC90: 16
  Range: 8–16
Haemophilus influenzae; [6]
  MIC50: 8
  MIC90: 16
  Range: 0.25–16
Haemophilus influenzae; [7]
  MIC50: 4 and 2
  MIC90: 8 and 4
Haemophilus influenzae; Haemophilus influenzae
  MIC50: 2 and 1
  MIC90: 2 and 4
  Range: 0.5–8
[3]; MIC range
  Range: 0.5–8
[3]
  MIC50: 2 µg/mL (≈ 2.73 µM)
  MIC90: 4 µg/mL (≈ 5.45 µM)
Listeria monocytogenes
  MIC50: 0.5 µg/mL (≈ 0.681 µM)
Neisseria gonorrhoeae; MIC range, Neisseria gonorrhoeae (non β-lactamase producer)
  Range: 0.015–4 and 0.03–2
Neisseria gonorrhoeae; Neisseria gonorrhoeae (non β-lactamase producer)
  MIC90: 2 and 1
Neisseria gonorrhoeae; Neisseria gonorrhoeae (β-lactamase producer)
  MIC90: 2 and 4
Neisseria gonorrhoeae; Neisseria gonorrhoeae
  MIC90: 1
Neisseria meningitidis; MIC range
  Range: 0.5–8
Neisseria meningitidis
  MIC50: 1 µg/mL (≈ 1.36 µM)
  MIC90: 8 µg/mL (≈ 10.9 µM)
Staphylococcus aureus; Staphylococcus aureus (methicillin susceptible)
  MIC50: 0.5 µg/mL (≈ 0.681 µM)
Staphylococcus aureus; [8]
  MIC50: 0.5 µg/mL (≈ 0.681 µM)
  MIC90: 0.5 µg/mL (≈ 0.681 µM)
Staphylococcus aureus; Staphylococcus aureus
  MIC50: 0.5 µg/mL (≈ 0.681 µM)
Streptococcus agalactiae; MIC range
  Range: 0.03–0.25 and 0.015–0.06
Streptococcus agalactiae
  MIC50: 0.03 µg/mL (≈ 0.0409 µM)
  MIC90: 0.03 µg/mL (≈ 0.0409 µM)
Streptococcus pneumoniae; MIC range
  Range: 0.03–0.25 and 0.015–0.06 and 0.015–0.25
Streptococcus pneumoniae; in µg/mL
  MIC50: 0.06 and 0.03
  MIC90: 0.03 and 0.06
Streptococcus pyogenes
  MIC50: 0.06 and 0.03
Streptococcus spp.
  MIC50: 0.03 µg/mL (≈ 0.0409 µM)
